Where a name gives a salt, the structure may show the parent alone.
Key:
[1] = test system: colorectal cancer cell line HCT116; assay: CellTiter-Glo tumor cell proliferation, HCT116; assay type: cell-based, human; settings: 72 h; for IC50: CellTiter-Glo; for inhibition at 1 µM / inhibition at 10 µM: read-out: Inhibition rate HCT116 (%)
Procedure: (§1) The effect of compounds on tumor cell proliferation was detected by CellTiter-Glo method. Human melanoma cell line A375, non-small cell lung cancer cell line A549, human lung adenocarcinoma cell line H1299, colorectal cancer cell line HCT116, liver cancer cell line HepG2 and gastric cancer cell line MGC80-3 were cultured in vitro. The cells were collected after growing to the logarithmic growth phase, centrifuged at 1000 rpm for 5 min, and suspended in an appropriate amount of medium after discarding the supernatant, and the cell concentration was adjusted to 2×10^4/mL. The cell suspension was inoculated onto the 384-well cell culture plate, with 50 μL per well. After being cultured in a cell incubator (37° C., 5% CO2) for 24 h, 5 μL of drug diluted by the cell culture medium was added into each well for the treatment group. Each drug was provided in triplicate. After 72 h incubation in the incubator, 20 μL of CellTiter-Glo was added into each well, and the relative luminescence unit (RLU) was measured with Multimode Microplate Reader Varioskan Flash (Thermo Scientific, USA) after placed at 37° C. for 20 min, and compared with the RLU of the control group. SigmaPlot 10.0 software was used to calculate the inhibition rate and IC50 value.

[2] = test system: non-small cell lung cancer cell line A549; assay: CellTiter-Glo tumor cell proliferation, A549; assay type: cell-based, human; settings: Homo sapiens, A549, 72 h; for inhibition at 1 µM / inhibition at 10 µM: read-out: Inhibition rate A549 (%)
Procedure: as §1

[3] = test system: Human melanoma cell line A375; assay: CellTiter-Glo tumor cell proliferation, A375; assay type: cell-based; settings: Homo sapiens, A-375, 72 h; for inhibition at 1 µM / inhibition at 10 µM: read-out: Inhibition rate A375 (%)
Procedure: as §1

IC50 [1] [nM]	IC50 ([1]; Homo sapiens, HCT-116) [nM]	IC50 ([2]; CellTiter-Glo) [nM]	IC50 ([3]; CellTiter-Glo) [nM]	Molecule	inhibition at 1 µM [2] [%]	inhibition at 10 µM [2] [%]	inhibition at 1 µM [3] [%]	inhibition at 10 µM [3] [%]	inhibition at 1 µM ([1]; Homo sapiens, HCT-116) [%]	inhibition at 10 µM ([1]; Homo sapiens, HCT-116) [%]
281				(R)-(3-methyl-1-(2-(3-(3-(2-(4-methylpiperazin-1-yl)ethoxy)phenyl)phenyl)-5-phenyl-1H-pyrazol-1-yl)acetamido)butyl)boronic acid hydrochloride [Compound 35]						
427				(R)-(1-(2-(3-(N,N-diethylethoxy)phenyl)-5-phenyl-1H-pyrazol-1-yl)acetamido)isobutyl)boronic acid hydrochloride [Compound 32]						
	891			CC(C)[C@H](NC(=O)CN1NC(C)(c2cccc(OCCN3CCCCC3)c2)C=C1c1ccccc1)B(O)O (stereo partly drawn) [Compound 34, (R)-(3-methyl-1-(2-(5-phenyl-3-(3-(2-(piperidin-1-yl)ethoxy)phenyl)-1H-pyrazol-1-yl)acetamido)isobutyl)boronic acid hydrochloride]						
				CC(C)C[C@H](NC(=O)Cn1nc(-c2ccccc2OS(=O)(=O)c2ccccc2C(F)(F)F)cc1-c1ccccc1)B(O)O [Compound 3, (R)-(3-methyl-1-(2-(5-phenyl-3-(2-(((2-(trifluoromethyl)phenyl)sulfonyl)oxy)phenyl)-1H-pyrazol-1-yl)acetamido)butyl)boronic acid]	17.1	60.6	5.7	98.2	3	97.8
				CC(C)C[C@H](NC(=O)Cn1nc(-c2ccccc2OS(=O)(=O)c2ccccn2)cc1-c1ccccc1)B(O)O [Compound 10, (R)-(1-(2-(3-(2-((pyridin-2-ylsulfonyl)oxy)phenyl)-5-phenyl-1H-pyrazol-1-yl)acetamido)-3-methylbutyl)boronic acid]	0.1	72.9	1.5	98	6.6	98
				Cc1cccc(S(=O)(=O)Oc2ccccc2-c2cc(-c3ccccc3)n(CC(=O)N[C@@H](CC(C)C)B(O)O)n2)c1 [Compound 8, (R)-(3-methyl-1-(2-(5-phenyl-3-(2-((m-tolylsulfonyl)oxy)phenyl)-1H-pyrazol-1-yl)acetamido)butyl)boronic acid]	2.9	73.4	1.8	98.9	2.1	98.5
				CC(C)C[C@H](NC(=O)Cn1nc(-c2ccccc2OS(=O)(=O)c2ccc(C(F)(F)F)cc2)cc1-c1ccccc1)B(O)O [Compound 2, (R)-(3-methyl-1-(2-(5-phenyl-3-(2-(((4-(trifluoromethyl)phenyl)sulfonyl)oxy)phenyl)-1H-pyrazol-1-yl)acetamido)butyl)boronic acid]	15.1	61.7	8.6	97.8	1.4	97.9
				CC(C)C[C@H](NC(=O)Cn1nc(-c2ccccc2OS(=O)(=O)c2cccc(C(F)(F)F)c2)cc1-c1ccco1)B(O)O [Compound 24, (R)-(1-(2-(5-(furan-2-yl)-3-(2-(((3-(trifluoromethyl)phenyl)sulfonyl)oxy)phenyl)-1H-pyrazol-1-yl)acetamido)-3-methylbutyl)boronic acid]	1.9	66.7	14.9	97	4.9	97.1
				CC(C)C[C@H](NC(=O)Cn1nc(-c2ccccc2OS(=O)(=O)c2cccc(Cl)c2)cc1-c1ccccc1)B(O)O [Compound 5, (R)-(1-(2-(3-(2-(((3-chlorophenyl)sulfonyl)oxy)phenyl)-5-phenyl-1H-pyrazol-1-yl)-acetamido)-3-methylbutyl)boronic acid]	10.2	67.2	2.2	97.9	9	97.3
	57			CC(C)C[C@H](NC(=O)Cn1nc(-c2cccc(OCCN3CC(C)OC(C)C3)c2)cc1-c1ccccc1)B(O)O (stereo partly drawn) [Compound 36, ((1R)-1-(2-(3-(3-(2-(2,6-dimethylmorpholino)ethoxy)phenyl)-5-phenyl-1H-pyrazol-1-yl)acetamido)-3-methylbutyl)boronic acid hydrochloride]						
				CC(C)C[C@H](NC(=O)Cn1nc(-c2ccccc2OS(=O)(=O)c2cc(Cl)ccc2Cl)cc1-c1ccccc1)B(O)O [Compound 7, (R)-(1-(2-(3-(2-(((2,5-dichlorophenyl)sulfonyl)oxy)phenyl)-5-phenyl-1H-pyrazol-1-yl)-acetamido)-3-methylbutyl)boronic acid]	16.5	52	3.7	96	3.5	96.6
				COc1ccc(-c2cc(-c3ccccc3OS(=O)(=O)c3cccc(C(F)(F)F)c3)nn2CC(=O)N[C@@H](CC(C)C)B(O)O)cc1 [Compound 21, (R)-(1-(2-(5-(4-methoxyphenyl)-3-(2-(((3-(trifluoromethyl)phenyl)sulfonyl)oxy)phenyl)-1H-pyrazol-1-yl)acetamido)-3-methylbutyl)boronic acid]	4.4	6.4	2	44.1	11.4	62.2
	920	3640	1430	CC(C)C[C@H](NC(=O)Cn1nc(-c2cccc(OCCN(C)C)c2)cc1-c1ccccc1)B(O)O [Compound 29, (R)-(1-(2-(3-(3-(2-(dimethylamino)ethoxy)phenyl)-5-phenyl-1H-pyrazol-1-yl)acetamido)-3-methylbutyl)boronic acid hydrochloride]						
				CC(C)C[C@H](NC(=O)Cn1nc(-c2ccccc2OS(=O)(=O)c2cccc(C(F)(F)F)c2)cc1-c1ccc(Cl)cc1)B(O)O [Compound 17, (R)-(1-(2-(5-(4-chlorophenyl)-3-(2-(((3-(trifluoromethyl)phenyl)sulfonyl)oxy)phenyl)-1H-pyrazol-1-yl)acetamido)-3-methylbutyl)boronic acid]	0.3	1.9	8.3	56.1	13.6	70.6
				CC(C)C[C@H](NC(=O)Cn1nc(-c2ccccc2OS(=O)(=O)c2cccc(C(F)(F)F)c2)cc1-c1ccc(C#N)cc1)B(O)O [Compound 18, (R)-(1-(2-(5-(4-cyanophenyl)-3-(2-(((3-(trifluoromethyl)phenyl)sulfonyl)oxy)phenyl)-1H-pyrazol-1-yl)acetamido)-3-methylbutyl)boronic acid]	7.1	29	4.6	81.1	5.5	89.7
				CC(C)[C@H](NC(=O)Cn1nc(-c2ccccc2OS(=O)(=O)c2cccc(C(F)(F)F)c2)cc1-c1ccccc1Br)B(O)O [Compound 15, (R)-(1-(2-(5-(2-bromophenyl)-3-(2-(((3-trifluoromethylphenyl)sulfonyl)oxy)phenyl)-1H-pyrazol-1-yl)acetamido)isobutyl)boronic acid]	7.5	1.5	3	67.2	5	3.6
				CC(C)C[C@H](NC(=O)Cn1nc(-c2ccc(OS(=O)(=O)c3cccc(C(F)(F)F)c3)cc2)cc1-c1ccccc1)B(O)O [Compound 12, (R)-(3-methyl-1-(2-(5-phenyl-3-(4-(((3-(trifluoromethyl)phenyl)sulfonyl)oxy)phenyl)-1H-pyrazol-1-yl)acetamido)butyl)boronic acid]	45.5	85.3	83	98.7	45.8	96.3
				CC(C)C[C@H](NC(=O)Cn1nc(-c2ccccc2OS(=O)(=O)c2cccc(C(F)(F)F)c2)cc1-c1ccc(OCc2ccccc2)cc1)B(O)O [Compound 23, (R)-(1-(2-(5-(4-(benzyloxy)phenyl)-3-(2-(((3-(trifluoromethyl)phenyl)sulfonyl)oxy)phenyl)-1H-pyrazol-1-yl)acetamido)-3-methylbutyl)boronic acid]	7.4	63.4	5.7	77	2.6	55.6
	925			CC(C)[C@H](NC(=O)CN1NC(C)(c2cccc(OCCN3CCCC3)c2)C=C1c1ccccc1)B(O)O (stereo partly drawn) [Compound 33, (R)-(3-methyl-1-(2-(5-phenyl-3-(3-(2-(pyrrolidin-1-yl)ethoxy)phenyl)-1H-pyrazol-1-yl)acetamido)isobutyl)boronic acid hydrochloride]						
